# In publication PMC9147192, “Small Molecule Arranged Thermal Proximity Coaggregation (smarTPCA)—A Novel Approach to Characterize Protein–Protein Interactions in Living Cells by Similar Isothermal Dose–Responses” (International Journal of Molecular Sciences, 2022):
# Several values for one entry are separate records, joined by “and”; a condition that tells them apart may be missing. Equal entries are not always repeated. Where two headings read alike, the source gives them in different places.
# Key:
# GSK-3α = molecular target: T1, GSK-3α (Homo sapiens, UniProt P49840); assay: CETSA in HL-60 cell extract, immunoblot; type: binding; details: for ΔTm at 20 µM / Tm (GSK-3α): 20 µM inhibitor; for Tm difference vs DMSO, same protein: inhibitor minus DMSO; for Tm (fitted melting curve): in °C; for Tm: GSK-3α, cell extract
# T1 construct: parallel detection of MAPK14, MAPKAPK2, MAPKAPK3, and GSK-3α; endogenous in cells; host or cells: HL-60 (ATCC CCL-240), living cells or cell extract
# T1 sequence (P49840 whole entry): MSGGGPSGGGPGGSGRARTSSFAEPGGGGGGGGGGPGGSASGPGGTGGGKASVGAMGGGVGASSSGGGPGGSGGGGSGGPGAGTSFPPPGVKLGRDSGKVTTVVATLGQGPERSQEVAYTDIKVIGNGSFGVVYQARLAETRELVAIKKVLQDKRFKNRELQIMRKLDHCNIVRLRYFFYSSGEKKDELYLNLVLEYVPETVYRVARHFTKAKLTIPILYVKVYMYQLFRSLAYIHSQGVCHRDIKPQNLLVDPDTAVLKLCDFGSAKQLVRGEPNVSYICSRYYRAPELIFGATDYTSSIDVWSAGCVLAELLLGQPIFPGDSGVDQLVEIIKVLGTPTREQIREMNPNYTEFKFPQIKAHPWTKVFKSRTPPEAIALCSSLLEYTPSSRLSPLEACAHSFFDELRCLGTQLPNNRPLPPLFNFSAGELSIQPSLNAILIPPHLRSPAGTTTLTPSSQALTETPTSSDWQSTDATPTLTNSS
# Protocol: (§1) For the differentiation of primary and secondary binding effects, CETSA experiments using cell extracts instead of living cells (cell extract test) are proposed in the literature. Therefore, we performed CETSA assays in HL-60 cell extracts under the same conditions as for living cells (Figure 1, Table 1, Supplementary Table S6).
# (§2) HL-60 cells were expanded as described above for CETSA and TPP-TR to about 1.25 million cells per ml. 50 mL of the cell suspension, respectively, was transferred into 50 mL conical tubes. After centrifugation (300 rcf, 3 min, r.t.) and removing all of the supernating culture medium, the cells were washed twice with 25 mL PBS (r.t.) by gently resuspending the cells, followed by centrifugation (300 rcf, 3 min, r.t.) and the removal of the supernatant. The cells were transferred into pre-weighed 2 mL LoBind Eppendorf tubes using 1 mL PBS (r.t.), respectively, for resuspending. After centrifugation (300 rcf, 3 min, r.t.) and removing as much as possible of the supernatants, the cell wet weights were determined. The cells were stored at −80 °C after shock-freezing in liquid nitrogen.
# (§3) Cell extracts were obtained by four freeze/thaw cycles as described above for CETSA and TPP-TR using 10 µL ice cold PBS supplemented with protease inhibitors per milligram of cell pellet wet weight for the initial resuspension of the pellet, followed by centrifugation (20,000 rcf, 30 min, 4 °C), and the recovery of the supernatant. After determining the protein content, the cell extracts were diluted to 1.8 mg/mL total protein concentration using ice-cold PBS supplemented with protease inhibitors and aliquots of 99 µL in PCR tube strips, and 1.1 mL in LoBind 1.5 mL Eppendorf tubes were shock-frozen in liquid nitrogen and stored at −80 °C or directly processed.
# (§4) A fourth aliquot of 1.8 mg/mL HL-60 cell extract was supplemented with 2.2 µL of DMSO. […] After a brief centrifugation using a benchtop centrifuge, the temperature treatment at the ten different temperatures was performed as described in Section 4.1.1.
# (§5) Additionally, the preparation of cell extracts containing the fraction of soluble, non-denatured proteins was performed as described in Section 4.1.1. for living cells, but omitting the freeze/thaw steps for cell lysis.
# (§6) For each sample set comprising either ten temperature range samples or ten compound concentration range samples, the same volume of the cell extracts containing the fraction of soluble, non-denatured proteins was used for further analysis. This volume was determined using the two lowest temperature samples (36.5 and 41.2 °C) per temperature range sample set so that they contained an average of 5 µg total protein (e.g., 2.78 µL for all temperature range samples of a sample set whose two lowest temperature samples contain an average of 1.8 mg/mL protein). For the compound concentration range experiments, all samples of a set were used for averaging. The calculated volume was respectively transferred into PCR tubes of a tube strip, supplemented with SDS sample buffer (final concentrations: 25 mM dithiothreitol (DTT), 7.5% glycerol, 3% SDS, 37.5 mM Tris/HCl pH 7.0, 0.005% bromophenol blue), incubated for 10 min at r.t. and applied to SDS-PAGE under external cooling in an ice bath (MW marker: PageRuler pre-stained protein ladder (Thermo scientific, Waltham, MA, USA); NuPAGE 4–12% Bis-Tris Gels, 1.0 mm, Midi Protein Gel, 26-well (Thermo fisher scientific); ice cold MOPS SDS running buffer (50 mM MOPS, 50 mM Tris base, 0.1% SDS, 0.003% EDTA (free acid)); 50 V for 15 min, then 200 V for about 1.5 h, i.e., the rest of the run).
# MAPKAPK2 = MAPKAPK2 (Homo sapiens, UniProt P49137); assay: CETSA in HL-60 cell extract, immunoblot; type: binding; details: for Tm difference vs DMSO, same protein: MAPKAPK2, inhibitor minus DMSO
# MAPKAPK2, sequence (P49137 whole entry): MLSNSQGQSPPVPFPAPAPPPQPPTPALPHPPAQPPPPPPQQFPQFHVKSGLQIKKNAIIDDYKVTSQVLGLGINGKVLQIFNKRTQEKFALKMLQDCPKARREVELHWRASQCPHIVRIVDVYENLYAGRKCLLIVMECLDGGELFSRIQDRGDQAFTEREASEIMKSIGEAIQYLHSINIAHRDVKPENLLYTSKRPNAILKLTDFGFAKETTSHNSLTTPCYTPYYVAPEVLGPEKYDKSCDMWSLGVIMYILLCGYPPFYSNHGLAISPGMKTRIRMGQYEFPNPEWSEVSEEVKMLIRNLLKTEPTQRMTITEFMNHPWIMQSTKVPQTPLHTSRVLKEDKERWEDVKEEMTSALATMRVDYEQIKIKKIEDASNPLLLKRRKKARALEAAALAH
# Protocol: as §1, §2, §3, §4, §5, §6
# [1] = read-out: ΔTm to DMSO in Cell Extract Compared to Living Cells (GSK-3α)
# [2] = CETSA in cell extract (lysate), GSK3a
# [3] = HL-60 cell extract, immunoblot, read-out: ΔTm to DMSO (GSK-3α)
# [4] = MAPKAPK2, cell extract, immunoblot
Structure (SMILES),ΔTm at 20 µM (GSK-3α; [1]) [°C],"Tm difference vs DMSO, same protein (GSK-3α; [2])",Tm (fitted melting curve) (GSK-3α; [2]),Tm (GSK-3α; immunoblot) [°C],"Tm (GSK-3α) (GSK-3α; HL-60 cell extract, immunoblot) [°C]",ΔTm at 20 µM (GSK-3α; [3]) [°C],ΔTm to DMSO in Cell Extract Compared to Living Cells (MAPKAPK2) (MAPKAPK2; 20 µM inhibitor) [°C],"Tm difference vs DMSO, same protein (MAPKAPK2; CETSA in cell extract (lysate))","Tm (fitted melting curve) (MAPKAPK2; CETSA in cell extract (lysate), MAPKAPK2, in °C)","Tm (MAPKAPK2) (MAPKAPK2; HL-60 cell extract, 20 µM inhibitor, immunoblot) [°C]","ΔTm to DMSO (MAPKAPK2) (MAPKAPK2; HL-60 cell extract, 20 µM inhibitor, immunoblot, 20 µM)","ΔTm to DMSO in cell extract compared to living cells (MAPKAPK2; MAPKAPK2, cell extract minus living cells) [°C]",Tm (MAPKAPK2; [4]) [°C],ΔTm to DMSO (MAPKAPK2; [4]) [°C],"Tm (fitted melting temperature) (GSK-3α; CETSA in cell extract (lysate), GSK3a, melting curve fit, in °C (unit assumed))","ΔTm at 20 µM (MAPKAPK2; 20 µM inhibitor, read-out: ΔTm to DMSO in Cell Extract Compared to Living Cells (MAPKAPK2)) [°C]","ΔTm at 20 µM (MAPKAPK2; HL-60 cell extract, 20 µM inhibitor, immunoblot, read-out: ΔTm to DMSO (MAPKAPK2)) [°C]"
Cn1c(NC[C@@H](N)Cc2ccccc2)nc(-c2ccncc2)c(-c2ccc3ccccc3c2)c1=O [AMG-548],-0.05,-0.76,48.26,48.26,48.26,-0.76,−2.22,2.96,51.06,51.06,3.0 °C and 2.96 °C,-2.22,51.06,2.96,–,–,–
Cc1cnc(Nc2ccc(F)cc2Cl)nc1-c1c[nH]c(C(=O)N[C@H](CO)c2cccc(Cl)c2)c1 [ERK 11e],1.1,1.24,50.25,50.25,50.25,1.24,–,0.23,–,–,–,–,–,–,50.2547,0.25,0.23
